Data set [1] relates to OVA-induced allergic asthma mouse model. Briefly: Ovalbumin-induced murine model of allergic asthma, BALF analysis. The class given is in vivo, Balb/c mice. To be noted: Day 28, alicaforsen 1 mM IN 30 μl, dexamethasone 10 mg/kg IP, days 14, 25-27. The protocol:
Allergic asthma was modeled in female BALB/c mice by initial sensitization to OVA followed by subsequent intranasal challenge of purified OVA.
Mice were monitored throughout the study for changes in body weight and general signs of sickness. Allergic response to OVA was measured by examining bronchoalveolar lavage fluid (BALF) for inflammatory cell influx and the presence of the inflammatory cytokine IL-13.
On days 0 and 14, each animal was administered an IP injection of 200 μL OVA/Alum emulsion containing 100 μg OVA.
On days 14 and 25-27, each animal was administered an intranasal challenge of 30 μL PBS containing 50 μg OVA.
Treatments were performed on the same days as OVA challenge on Study Days 14 and 25-27 (4 total treatments). Treatments were administered 1 hour following OVA challenge.
10 mg/kg dexamethasone was administered in 200 μL volume/animal (intraperitoneal) on Study Days 14 and 25-27 (4 total treatments).
Bonchoalveolar lavage was performed on euthanised animals. Briefly, an angiocatheter was placed into trachea. 1 mL of PBS was instilled into the lungs and allowed to flow back out into the syringe; the PBS was then instilled and removed again. The resultant Bronchoalveolar lavage fluid (BALF) was centrifuged at 500×g for 5 mins.
The non-cellular portion of the BALF was stored at −80° C. The levels of IL-13 were analyzed by Luminex technology.
The cellular portion of the BALF was used to analyze the cell influx. The total number of leukocytes within the BALF and different cell types present were examined via flow cytometry.
Granulocytes: CD45^+; Non-autofluorescent; Gr-1^+
Eosinophils: CD45^+; Non-autofluorescent; Gr-1^+; Siglec F^+

The test system of another data set is dry eye murine model. Briefly: Scopolamine dry eye murine model, corneal fluorescein staining and clinical signs. The class given is in vivo, Mouse C57BL/6N. To be noted: for Corneal fluorescein staining score (mean ± SD): one dose per day, topical both eyes. How it is done:
In a model of mice, the application of transdermal scopolamine patches to the mid-tail is used to reduce aqueous tear production and thus mimic lacrimal gland insufficiency. The function of scopolamine is to induce a pharmacologic blockade of cholinergic receptors in the lacrimal gland and therefore to decrease aqueous production. The desiccation is amplified by adding environmental stress. Animals are exposed to a low-humidity environment and constant airflow.
Mice were treated with transdermal scopolamine administration (0.5 mg/72 h; Scopoderm TTS®). The transdermal scopolamine patch was wrapped near the tail base of the mouse, secured with cellophane tape. Patches were reapplied every 48 hours.
Mice were randomized into 4 groups of 10 animals. The study was divided into 2 experimental sets with 5 animals of each group represented.
All test items, control items and comparator item were instilled in both eyes (5 μL per administration), using a micropipette.
Tear production and corneal defects were assessed at baseline, on Days 3, 6 and 10 using phenol red thread (PRT) and corneal fluorescence staining (CFS), respectively, for each animal of the 4 groups.
Each day, the general clinical signs and the appearance of all animals was observed.
At the different time points the measurement was performed before administration on Day 3 and at least one hour after the second treatment for the other days of the study. The eyes of the animals from all groups were examined by slit-lamp observation using blue light after 0.5% fluorescein eye drop instillation (0.5 μL). Punctuate staining was recorded with the standardized National Eye Institute (NEI) grading system giving a 0-3 score to each of the 5 areas in which the corneas were divided.

In data set [2] the target is T1, TLR9 (Homo sapiens, UniProt Q9NR96).
T1 sequence (Q9NR96 26-1032): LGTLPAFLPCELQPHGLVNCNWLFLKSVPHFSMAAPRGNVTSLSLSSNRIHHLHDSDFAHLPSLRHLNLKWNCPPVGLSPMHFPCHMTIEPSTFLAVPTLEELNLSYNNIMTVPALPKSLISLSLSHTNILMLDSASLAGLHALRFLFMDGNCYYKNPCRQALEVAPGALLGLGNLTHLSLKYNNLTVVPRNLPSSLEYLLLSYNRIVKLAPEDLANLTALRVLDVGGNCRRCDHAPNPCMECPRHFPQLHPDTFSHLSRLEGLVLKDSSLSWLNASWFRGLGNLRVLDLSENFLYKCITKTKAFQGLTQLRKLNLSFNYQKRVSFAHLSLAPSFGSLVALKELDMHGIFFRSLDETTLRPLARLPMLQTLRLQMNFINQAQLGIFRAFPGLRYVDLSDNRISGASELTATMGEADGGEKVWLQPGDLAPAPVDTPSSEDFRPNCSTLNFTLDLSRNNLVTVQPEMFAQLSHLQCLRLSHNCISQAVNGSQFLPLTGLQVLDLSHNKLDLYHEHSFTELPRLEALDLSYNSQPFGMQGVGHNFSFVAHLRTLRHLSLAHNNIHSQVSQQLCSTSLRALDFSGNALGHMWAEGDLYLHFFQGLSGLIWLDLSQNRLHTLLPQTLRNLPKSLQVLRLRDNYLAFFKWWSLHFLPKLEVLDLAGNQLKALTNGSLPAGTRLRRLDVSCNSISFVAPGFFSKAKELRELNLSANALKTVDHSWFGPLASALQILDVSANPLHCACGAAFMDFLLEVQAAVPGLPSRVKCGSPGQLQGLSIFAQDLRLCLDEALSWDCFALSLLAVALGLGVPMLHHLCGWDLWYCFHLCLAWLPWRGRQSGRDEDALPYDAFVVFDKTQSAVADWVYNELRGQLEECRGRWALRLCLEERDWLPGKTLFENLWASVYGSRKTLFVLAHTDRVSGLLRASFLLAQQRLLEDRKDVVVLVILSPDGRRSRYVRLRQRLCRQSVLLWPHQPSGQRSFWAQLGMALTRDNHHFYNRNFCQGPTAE
The data set is described as follows: TLR-9 antagonist activity with E. coli genomic DNA as the activator. The class given is cell-based.

Data set [3] in a line: Circular Dichroism spectroscopy, thermal stability of secondary structure. The class given is physicochemical. From the text: SEQ ID NO: 1 was therefore subjected to Circular Dichroism (CD) spectroscopy to gather information about the possible secondary structure. CD of DNA can be utilized to detect all 3 major forms of duplex structure (B, A and Z) and is sensitive to conditions that disrupt the structure such a heating. Of interest was the stability of any secondary structure detected at or above physiologic temperatures.
Additional thermal denaturation of the putative duplex was also studied in the presence of Na^+ at concentrations of 50 mM and 150 mM. Sodium fluoride was used as Cl^− ions interfere with the CD spectra in this UV region.
Additional experiments were conducted to test the influence of Mg^++ and polyamines on the stability of the structure.
For orientation: Circular dichroism is the unequal absorption of left and right circularly polarised light.

Data set [4] deals with T1, TLR9. The data set is described as follows: Inhibition of TLR9-mediated NF-kB induction activated by CpG ODN2006, luciferase reporter HEK 293 cell line. The class given is cell-based. Also on record: host or cells: HEK 293 (TLR9/NF-kB luciferase reporter line). The protocol: Briefly, the TLR9/NF-kB luciferase reporter HEK 293 cell line was plated in 96-well white solid plates at 5×10^4 cells per well for 16 h. […] Cells were then treated with 20 ug/ml of CpG ODN2006 to activate TLR9. After 16 h, luciferase activity was measured and analyzed.
On the technique in general: A reporter such as luciferase makes a cellular process visible.

Data set [5] addresses T1, TLR9. The data set is described as follows: TLR9 activation (agonist) screen, TLR9/NF-kB luciferase reporter HEK 293 cell line. Format: cell-based. Also on record: host or cells: HEK 293 (TLR9/NF-kB luciferase reporter line). To be noted: up to concentrations as high as 100 uM. The protocol: […] Briefly, the TLR9/NF-kB luciferase reporter HEK 293 cell line (Abeomics, San Diego, Calif.) was plated in 96-well white solid plates at 5×10^4 cells per well for 16 h. […] Luciferase activity was then measured and analyzed.

For data set [6], the target named is T1, TLR9. The data set is described as follows: Effect of heat, Na+, Mg++ and spermine pre-treatment on TLR-9 antagonist activity. The class given is cell-based. To be noted: pre-treated with 5 mM spermine, heated to 90° C. and cooled; 1.0 uM ODN2006. How it is done: The samples and conditions of these tests are diagramed in FIG. 9.
One sample remained at room temperature while the remaining samples were heated to 90° C. for 3 min and then allowed to cool to room temperature. The samples were then diluted to the indicated concentrations and incubated with the target cells for 1 hr, prior to the addition of 1.0 uM ODN2006 to stimulate TLR-9.

Experimental findings from patent US20190388459A1, “NEW THERAPEUTIC USES” (ATLANTIC PHARMACEUTICALS (HOLDINGS) LTD, priority 2017, published 2019) are described below.

Marks after values point to notes of the source that are not given here. Some results are limits rather than exact numbers.

Consider `C[C@@H]1C[C@H]2[C@@H]3CCC4=CC(=O)C=C[C@]4(C)[C@@]3(F)[C@@H](O)C[C@]2(C)[C@@]1(O)C(=O)CO` [Dexamethasone], for which, in data set [1], the “BALF IL-13, Mean” value is 13.2** pg/ml and the “Total CD45 cells in BALF, Mean” value was 236574. Also, in data set [1] (in % (unit assumed)), the “Eosinophil (Frequency of CD45+) in BALF, Mean” value is 46.60** and the “Granulocyte (Frequency of CD45+) in BALF, Mean” value is on record as 51.88**.

“alicaforsen (GCCCAAGCTGGCATCCGTCA; chemistry not given here; listed as Homo sapiens) [SEQ ID NO: 1]”: the “tolerability of multiple topical administrations” value in the data set on dry eye murine model (1 mM and 10 mM, topical ocular) is “clinically well tolerated”. In addition, the “Corneal fluorescein staining score (mean ± SD)” value in the data set with dry eye murine model (Day 6, 1 mM) is given as 10.5 ± 2.6; in the data set on dry eye murine model (Day 6, 10 mM) it was 10.8 ± 2.0; in the data set on dry eye murine model (Day 10, 1 mM, listed as ALICAFORSEN), 9.3 ± 3.1; in the data set with dry eye murine model (Day 10, 1 mM, listed as alicaforsen), “lower than the Vehicle group”; with dry eye murine model (Day 10, 10 mM, listed as ALICAFORSEN) it was 9.7 ± 2.2; with dry eye murine model (Day 10, 10 mM, listed as alicaforsen) it was “lower than the Vehicle group”. Moreover, the “antagonism of TLR-9 activation by E. coli genomic DNA” value with TLR9 [2] is recorded as “remained antagonistic to activation of TLR-9”. Moreover, the “effect of spermine on secondary structure” value in data set [3] (5 mM spermine in the presence of 50 mM Na+) is on record as “completely abolished the secondary structure”. Also, the “structure retained (190 nm peak intensity)” value in data set [3] (50 and 150 mM sodium, 40° C.) is recorded as “at least 50%”. Besides, the “loss of signal strength of 190 nm CD band” value in data set [3] (ddH20, heating to 80° C.) is greater than 85%. In addition, the TLR-9 antagonism result in the data set with TLR9 [4] (ODN2006 as activator) is recorded as “antagonist of TLR-9”. Besides, the “concentration needed for TLR-9 antagonism relative to inhibition of ICAM-1 expression” value with TLR9 [4] (comparative dose responses, FIG. 3) was “requires higher concentrations than the inhibition of ICAM-1 expression”. The “agonist activity at TLR-9” value with TLR9 [5] is given as “devoid of agonist activity”. In addition, the “TLR-9 inhibitory activity of spermine-treated samples” value with TLR9 [6] is “some activity is still observed”.
